# Molecular target: T1, human GPR84 receptor (Homo sapiens, UniProt Q9NQS5)
# T1 construct: host or cells: HEK293, transient transfection
# Experiment: Gαi biosensor BRET assay in HEK293 cells (antagonism of ZQ-16)
# Assay type: cell-based
# Conditions: for inhibition at 10 µM: HEK293, single concentration 10 μM (designated F); for IC50: HEK293 cells, antagonism of 200 nmol/L ZQ-16; for inhibition at 25 µM: HEK293, single concentration 25 μM (designated I); for inhibition at 2 µM: HEK293, single concentration 2 μM (designated A)
# In short: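 Antagonist mode: test compound 5 min at 37° C, followed by ZQ-16 agonist (200 nmol/L, 5 min, room temperature), in HEK293 cells transfected with GPR84 plus Rluc8-tagged Gαi2, GFP10-Gγ2 and Gβ1. Readout as GFP10/Rluc8 emission ratio after 5 μmol/L coelenterazine 400A, net of Rluc8-only and vehicle signal.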
# T1 sequence (Q9NQS5 whole entry): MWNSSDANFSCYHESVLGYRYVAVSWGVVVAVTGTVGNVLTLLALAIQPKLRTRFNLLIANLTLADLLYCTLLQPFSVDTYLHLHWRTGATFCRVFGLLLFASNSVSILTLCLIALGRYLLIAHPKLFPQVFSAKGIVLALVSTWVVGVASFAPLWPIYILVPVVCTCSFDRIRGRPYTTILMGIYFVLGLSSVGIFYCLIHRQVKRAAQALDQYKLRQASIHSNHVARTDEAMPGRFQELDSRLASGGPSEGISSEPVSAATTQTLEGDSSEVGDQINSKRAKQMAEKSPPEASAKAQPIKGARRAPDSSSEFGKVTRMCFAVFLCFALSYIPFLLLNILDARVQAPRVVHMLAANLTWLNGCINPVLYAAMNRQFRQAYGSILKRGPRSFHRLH
SMILES,inhibition at 10 µM [%],other results
C(#CC1CC1)c1ccc2c(c1)CCc1cn(CC3CCCCO3)nc1-2 (stereo not shown) [Compound I-328],≤ 25,
C(#CC1CC1)c1ccc2c(c1)CCc1cnn(CC3CCCCO3)c1-2 (stereo not shown) [Compound I-329],25 to 50,IC50: 300 to 1000 nM
c1ccc(COc2ccc3c(c2)CCc2cnn(CC4CCCCO4)c2-3)cc1 (stereo not shown) [Compound I-331],≤ 25,
C(#CC1CC1)c1ccc(-c2cn(CC3CCCCO3)cn2)cc1 (stereo not shown) [Compound I-333],,"inhibition at 15 µM (HEK293, single concentration 15 μM (designated H)): ≤ 25%"
Cc1c(-c2ccc(C#CC3CC3)cc2)ncn1CC1CCCCO1 (stereo not shown) [Compound I-334],,inhibition at 25 µM: > 75%
Cc1ncn(CC2CCCCO2)c1-c1ccc(C#CC2CC2)cc1 (stereo not shown) [Compound I-335],,inhibition at 25 µM: 25 to 50%
Cc1nc(-c2ccc(C#CC3CC3)cc2)cn1CC1CCCCO1 (stereo not shown) [Compound I-336],,inhibition at 25 µM: ≤ 25%
Cn1cc(-c2ccc(C#CC3CC3)cc2)nc1CC1CCCCO1 (stereo not shown) [Compound I-337],,"inhibition at 5 µM (HEK293, single concentration 5 μM (designated D)): ≤ 25%"
Cc1cc(C#CC2CC2)ccc1-c1ncn(CC2CCCCO2)c1C (stereo not shown) [Compound I-339],25 to 50,
Cc1ccc(-c2ccc(-c3ncn(CC4CCCCO4)c3C)cc2)cn1 (stereo not shown) [Compound I-340],25 to 50,
Cc1cc(C#CC2CC2)ccc1-c1cn(CC2CCCCO2)cn1 (stereo not shown) [Compound I-341],50 to 75,
"Cc1cc(C#CC2CC2)ccc1-c1nnc(CC2CCCCO2)o1 (stereo not shown) [Compound I-342, 2-(4-(cyclopropylethynyl)-2-methylphenyl)-5-((tetrahydro-2H-pyran-2-yl)methyl)-1,3,4-oxadiazole]",≤ 25,
Cc1ccc(C#CC2CC2)cc1-c1nnc(CC2CCCCO2)o1 (stereo not shown) [Compound I-343],50 to 75,
Cc1cc(C#CC2CC2)ccc1-c1nn(C[C@H]2CCCCO2)nc1C [Compound I-345],≤ 25,
C(#CC1CC1)c1ccc(-c2nnnn2CC2CCCCO2)cc1 (stereo not shown) [Compound I-346],,inhibition at 25 µM: 25 to 50%; IC50: > 3000 nM
CNCc1cc(C#CC2CC2)ccc1-c1cn(CC2CCCCO2)nn1 (stereo not shown) [Compound I-355],50 to 75,
CN(C)Cc1cc(C#CC2CC2)ccc1-c1cn(CC2CCCCO2)nn1 (stereo not shown) [Compound I-356],25 to 50,
Cc1cc(C(=O)NCC2CC2)ccc1-c1cn(CC2CCCCO2)nn1 (stereo not shown) [Compound I-357],50 to 75,
Cc1cc(NC(=O)CC2CC2)ccc1-c1cn(CC2CCCCO2)nn1 (stereo not shown) [Compound I-358],,inhibition at 2 µM: ≤ 25%
Cc1cc(C#CC2CC2)ccc1-c1cn(CC2Cc3ccccc3O2)nn1 (stereo not shown) [Compound I-363],,"inhibition at 3 µM (HEK293, single concentration 3 μM (designated B)): 25 to 50%"
Cc1cc(C#CC2CC2)ccc1-c1cn(CC2CCCOC2)nn1 (stereo not shown) [Compound I-364],25 to 50,

SMILES,inhibition at 10 µM [%],other results
CC1(C)CN(c2ccc(-c3cn(CC4CCCCO4)nn3)c(F)c2)C1 (stereo not shown) [Compound I-379],> 75,
Cc1cc(N2CC(C)(C)C2)cnc1-c1cn(CC2CCCCO2)nn1 (stereo not shown) [Compound I-380],> 75,
Cc1cc(C#CCNc2ccccc2)cnc1-c1cn(C[C@H]2CCCCO2)nn1 [Compound I-394],> 75,
"Cc1ccc(-c2ccc(C3CN(CC4CCCCO4)C(=O)O3)c(C)c2)cn1 (stereo not shown) [Compound I-406, 5-(2-methyl-4-(6-methylpyridin-3-yl)phenyl)-3-((tetrahydro-2H-pyran-2-yl)methyl)oxazolidin-2-one]",≤ 25,
"Cc1ccc(-c2ccc(C3COC(=O)N3CC3CCCCO3)c(C)c2)cn1 (stereo not shown) [Compound I-407, 4-(2-methyl-4-(6-methylpyridin-3-yl)phenyl)-3-((tetrahydro-2H-pyran-2-yl)methyl)oxazolidin-2-one]",≤ 25,
COC(=O)C1(C)CN(c2ccc(-c3cn(CC4CCCCO4)nn3)c(C)c2)C1 (stereo not shown) [Compound I-409],25 to 50,
Cc1cc(N2CC(C)(C(=O)Nc3ccccc3)C2)ccc1-c1cn(CC2CCCCO2)nn1 (stereo not shown) [Compound I-410],,inhibition at 2 µM: 25 to 50%
COc1ccc(-c2cn(CC3CCCCO3)nn2)c(C)c1 (stereo not shown) [Compound I-412],≤ 25,
Cc1cc(C#CC2CC2)cnc1-c1cn(CC2OCCCO2)nn1 [Compound I-414],50 to 75,
Cc1ccc(C#CCN2CC(C)(C)C2)cc1Cc1cn(CC2CCCCO2)nn1 (stereo not shown) [Compound I-415],25 to 50,
CC(c1cn(CC2CCCCO2)nn1)c1cccc(C#CC2CC2)n1 (stereo not shown) [Compound I-416],25 to 50,
Cc1ccc(C#CC2CC2)cc1Cc1nnnn1CC1CCCCO1 (stereo not shown) [Compound I-419],25 to 50,
Cc1cc(C#CC2CC2)cnc1-c1cn(CC2CC(C)(C)O2)nn1 (stereo not shown) [Compound I-420],50 to 75,
Cc1cc(N2CC(C)(C)C2)c(Cl)cc1-c1cn(C[C@H]2CCCCO2)nn1 [Compound I-421],> 75,
COc1cc(-c2cn(C[C@H]3CCCCO3)nn2)c(C)cc1N1CC(C)(C)C1 [Compound I-422],≤ 25,
CC(c1cccc(C#CCN2CC(C)(C)C2)c1)c1cn(CC2CCCCO2)nn1 (stereo not shown) [Compound I-425],25 to 50,
CC(c1cncc(C#CC2CC2)c1)c1cn(CC2CCCCO2)nn1 (stereo not shown) [Compound I-426],25 to 50,
Cc1cc(N2C3CCC2CN(Cc2ccccn2)C3)ccc1-c1cn(CC2CCCCO2)nn1 (stereo not shown) [Compound I-430],25 to 50,IC50: 300 to 1000 nM
COC1CCN(c2ccc(-c3cn(CC4CCCCO4)nn3)c(C)c2)C1 (stereo not shown) [Compound I-463],,inhibition at 2 µM: ≤ 25%
Cc1cc(OC2CN3CCC2CC3)ccc1-c1cn(CC2CCCCO2)nn1 (stereo not shown) [Compound I-465],≤ 25,
Cc1cc(N2CC3CCC(C2)N3Cc2ccccn2)ccc1-c1cn(CC2CCCCO2)nn1 (stereo not shown) [Compound I-466],≤ 25,

# Now from value to compound, other results behind:
inhibition at 10 µM [%],SMILES,other results
25 to 50,C=C(c1cncc(C#CC2CC2)c1)c1cn(CC2CCCCO2)nn1 (stereo not shown) [Compound I-427],IC50: > 3000 nM
25 to 50,COC1CCCN(c2ccc(-c3cn(CC4CCCCO4)nn3)c(C)c2)C1 (stereo not shown) [Compound I-428],
25 to 50,Cc1cc(N2CC3(CN(Cc4ccccn4)C3)C2)ccc1-c1cn(CC2CCCCO2)nn1 (stereo not shown) [Compound I-429],
≤ 25,Cc1cc(Cl)c(N2CC(C)(C)C2)cc1-c1cn(C[C@H]2CCCCO2)nn1 [Compound I-431],
> 75,"Cc1cc(C#CCn2cc(-c3ccccc3)nn2)ccc1-c1cn(CC2CCCCO2)nn1 (stereo not shown) [Compound I-432, 1-(3-(3-methyl-4-(1-((tetrahydro-2H-pyran-2-yl)methyl)-1H-1,2,3-triazol-4-yl)phenyl)prop-2-ynyl)-4-phenyl-1H-1,2,3-triazole]",IC50: 300 to 1000 nM
≤ 25,Cc1cc(C#CC2CC2)nnc1-c1cn(CC2CCCCO2)nn1 (stereo not shown) [Compound I-433],
≤ 25,Cc1cc(-c2cn(CC3CCCCO3)nn2)nnc1C#CC1CC1 (stereo not shown) [Compound I-434],
≤ 25,Cc1cc(N2CC(C)(C)C2)c(C#CC2CC2)cc1-c1cn(C[C@H]2CCCCO2)nn1 [Compound I-435],
≤ 25,Cc1cc(N2CCC(O)C2)ccc1-c1cn(CC2CCCCO2)nn1 (stereo not shown) [Compound I-436],
25 to 50,COC1CCN(c2ccc(-c3cn(CC4CCCCO4)nn3)c(C)c2)CC1 (stereo not shown) [Compound I-437],
25 to 50,Cc1cc(C(=O)n2ccc(N)n2)ccc1-c1cn(CC2CCCCO2)nn1 (stereo not shown) [Compound I-438],
25 to 50,COCC1(C)CN(c2ccc(-c3cn(CC4CCCCO4)nn3)c(C)c2)C1 (stereo not shown) [Compound I-439],
≤ 25,Cc1cc(C2CCN(Cc3ccccn3)CC2)ccc1-c1cn(CC2CCCCO2)nn1 (stereo not shown) [Compound I-440],
≤ 25,Cc1ccc(N2CC(C)(C)C2)cc1Cc1cn(CC2CCCCO2)nn1 (stereo not shown) [Compound I-443],
≤ 25,Cc1ccc(OCc2ccccn2)cc1Cc1cn(CC2CCCCO2)nn1 (stereo not shown) [Compound I-444],
50 to 75,Cc1cc(N2CCC(CO)CC2)ccc1-c1cn(CC2CCCCO2)nn1 (stereo not shown) [Compound I-445],

inhibition at 10 µM [%],SMILES,other results
25 to 50,Cc1cc(N2CCCC(CO)C2)ccc1-c1cn(CC2CCCCO2)nn1 (stereo not shown) [Compound I-446],
25 to 50,CC(=O)NCC1(C)CN(c2ccc(-c3cn(CC4CCCCO4)nn3)c(C)c2)C1 (stereo not shown) [Compound I-447],
50 to 75,Cc1cc(N2CC(C)(CNS(C)(=O)=O)C2)ccc1-c1cn(CC2CCCCO2)nn1 (stereo not shown) [Compound I-448],
25 to 50,Cc1cc(N2CCC(O)CC2)ccc1-c1cn(CC2CCCCO2)nn1 (stereo not shown) [Compound I-449],
25 to 50,Cc1cc(N2CCCC(O)C2)ccc1-c1cn(CC2CCCCO2)nn1 (stereo not shown) [Compound I-450],
≤ 25,Cc1cc(C#CC2CC2)cnc1-c1cn(Cc2ncccn2)nn1 [Compound I-453],
≤ 25,Cc1cc(C#CC2CC2)ccc1-c1cn(CC2OCCO2)nn1 [Compound I-457],
≤ 25,Cc1cc(C#CC2CC2)ccc1-c1cn(CC2CNC(=O)O2)nn1 (stereo not shown) [Compound I-458],
> 75,CC(C)c1cc(N2CC(C)(C)C2)cnc1-c1cn(CC2CCCCO2)nn1 (stereo not shown) [Compound I-461],
≤ 25,Cc1ccccc1-c1cn(CC2CCCCO2)nn1 (stereo not shown) [Compound I-467],
25 to 50,Cc1cc(CO)ccc1-c1cn(CC2CCCCO2)nn1 (stereo not shown) [Compound I-468],
≤ 25,Cc1noc(COc2ccc(-c3cn(CC4CCCCO4)nn3)c(C)c2)n1 (stereo not shown) [Compound I-469],
≤ 25,Cc1cc(N2CC(C)(N(C)C)C2)ccc1-c1cn(CC2CCCCO2)nn1 (stereo not shown) [Compound I-470],
> 75,Cc1cc(N2CC(CO)C2)ccc1-c1cn(CC2CCCCO2)nn1 (stereo not shown) [Compound I-471],
25 to 50,Cc1cc(N2CCCC2)ccc1-c1cn(CC2CCCCO2)nn1 (stereo not shown) [Compound I-472],
≤ 25,Cc1cc(C#CCN2CC(C)(C)C2)cnc1-c1cn(Cc2ncccn2)nn1 [Compound I-473],

# Source: patent US12617777B2, “GPR84 antagonists and uses thereof” (Liminal BioSciences Limited, priority 2021, dated 2026)
